Test results as given in ChEMBL document CHEMBL1909046, “DrugMatrix in vitro pharmacology data”.

What was measured:
[1] = molecular target: Delta-type opioid receptor (Homo sapiens, UniProt P41143); type: cell membranes, Membrane; details: hek293; note: in other assays of this panel Not Active means under 50% inhibition at 10 µM
[2] = DRUGMATRIX: Phosphodiesterase PDE4 enzyme inhibition (substrate: [3H]cAMP + cAMP); details: u-937; Not Active = under 50% inhibition at 10 µM
[3] = molecular target: Cytochrome P450 2E1 (Homo sapiens, UniProt P05181); details: bti-tn-5b1-4; note: in other assays of this panel Not Active means under 50% inhibition at 10 µM
Cytochrome P450 2E1, sequence (P05181 whole entry): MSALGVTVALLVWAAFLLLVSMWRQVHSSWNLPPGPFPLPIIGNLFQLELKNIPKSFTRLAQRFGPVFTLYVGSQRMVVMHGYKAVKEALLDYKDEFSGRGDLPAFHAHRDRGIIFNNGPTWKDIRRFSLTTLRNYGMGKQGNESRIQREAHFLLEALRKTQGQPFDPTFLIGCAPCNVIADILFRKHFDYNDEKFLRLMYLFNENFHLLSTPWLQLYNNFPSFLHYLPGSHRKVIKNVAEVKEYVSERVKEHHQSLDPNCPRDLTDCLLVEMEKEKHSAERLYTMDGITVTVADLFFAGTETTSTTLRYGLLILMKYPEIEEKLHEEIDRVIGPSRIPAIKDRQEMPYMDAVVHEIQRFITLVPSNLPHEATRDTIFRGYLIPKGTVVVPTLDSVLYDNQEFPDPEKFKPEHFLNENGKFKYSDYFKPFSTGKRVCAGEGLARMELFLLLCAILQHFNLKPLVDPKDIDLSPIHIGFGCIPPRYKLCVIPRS

[4] = molecular target: T1, Neuropeptide Y receptor type 2 (Homo sapiens, UniProt P49146); type: cell membranes, KAN-TS, Membrane; details: kan-ts; note: in other assays of this panel Not Active means under 50% inhibition at 10 µM
T1 sequence (P49146 whole entry): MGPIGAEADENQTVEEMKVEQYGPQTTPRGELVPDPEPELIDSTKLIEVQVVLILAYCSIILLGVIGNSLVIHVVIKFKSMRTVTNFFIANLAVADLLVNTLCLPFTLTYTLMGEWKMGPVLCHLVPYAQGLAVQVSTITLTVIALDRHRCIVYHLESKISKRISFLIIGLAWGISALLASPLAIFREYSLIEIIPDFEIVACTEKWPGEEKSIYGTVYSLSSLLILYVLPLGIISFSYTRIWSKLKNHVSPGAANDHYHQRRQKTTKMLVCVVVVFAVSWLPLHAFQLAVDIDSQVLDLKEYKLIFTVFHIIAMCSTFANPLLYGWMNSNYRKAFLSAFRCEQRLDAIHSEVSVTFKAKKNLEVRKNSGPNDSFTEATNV

[5] = molecular target: Vasopressin V1a receptor (Homo sapiens, UniProt P37288); type: cell membranes, Membrane; details: hek293; note: in other assays of this panel Not Active means under 50% inhibition at 10 µM
Vasopressin V1a receptor, sequence (P37288 whole entry): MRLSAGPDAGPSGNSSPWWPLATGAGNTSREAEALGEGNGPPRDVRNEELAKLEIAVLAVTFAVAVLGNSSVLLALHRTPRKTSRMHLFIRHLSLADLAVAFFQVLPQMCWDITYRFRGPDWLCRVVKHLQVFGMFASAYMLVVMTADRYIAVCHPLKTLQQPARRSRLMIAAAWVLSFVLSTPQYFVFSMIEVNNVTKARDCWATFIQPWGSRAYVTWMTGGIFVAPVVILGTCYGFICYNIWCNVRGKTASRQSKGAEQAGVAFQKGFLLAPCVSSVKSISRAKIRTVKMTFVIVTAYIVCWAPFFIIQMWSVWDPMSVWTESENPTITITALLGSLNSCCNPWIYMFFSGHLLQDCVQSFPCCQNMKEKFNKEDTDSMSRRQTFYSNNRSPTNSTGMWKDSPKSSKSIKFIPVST

[6] = molecular target: T2, C-X-C chemokine receptor type 1 (Homo sapiens, UniProt P25024); note: in other assays of this panel Not Active means under 50% inhibition at 10 µM
T2 sequence (P25024 whole entry): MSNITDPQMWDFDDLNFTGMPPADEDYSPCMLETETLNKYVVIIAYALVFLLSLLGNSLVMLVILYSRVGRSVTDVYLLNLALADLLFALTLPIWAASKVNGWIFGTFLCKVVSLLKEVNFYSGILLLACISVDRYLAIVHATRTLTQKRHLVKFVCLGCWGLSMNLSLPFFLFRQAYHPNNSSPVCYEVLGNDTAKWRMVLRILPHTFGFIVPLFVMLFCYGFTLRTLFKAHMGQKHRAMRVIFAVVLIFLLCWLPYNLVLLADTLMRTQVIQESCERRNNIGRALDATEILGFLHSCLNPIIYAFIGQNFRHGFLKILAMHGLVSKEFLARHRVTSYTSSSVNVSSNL

[7] = molecular target: T3, Receptor-type tyrosine-protein phosphatase C (Homo sapiens, UniProt P08575); parameters: species or system Escherichia coli
T3 sequence (P08575 whole entry): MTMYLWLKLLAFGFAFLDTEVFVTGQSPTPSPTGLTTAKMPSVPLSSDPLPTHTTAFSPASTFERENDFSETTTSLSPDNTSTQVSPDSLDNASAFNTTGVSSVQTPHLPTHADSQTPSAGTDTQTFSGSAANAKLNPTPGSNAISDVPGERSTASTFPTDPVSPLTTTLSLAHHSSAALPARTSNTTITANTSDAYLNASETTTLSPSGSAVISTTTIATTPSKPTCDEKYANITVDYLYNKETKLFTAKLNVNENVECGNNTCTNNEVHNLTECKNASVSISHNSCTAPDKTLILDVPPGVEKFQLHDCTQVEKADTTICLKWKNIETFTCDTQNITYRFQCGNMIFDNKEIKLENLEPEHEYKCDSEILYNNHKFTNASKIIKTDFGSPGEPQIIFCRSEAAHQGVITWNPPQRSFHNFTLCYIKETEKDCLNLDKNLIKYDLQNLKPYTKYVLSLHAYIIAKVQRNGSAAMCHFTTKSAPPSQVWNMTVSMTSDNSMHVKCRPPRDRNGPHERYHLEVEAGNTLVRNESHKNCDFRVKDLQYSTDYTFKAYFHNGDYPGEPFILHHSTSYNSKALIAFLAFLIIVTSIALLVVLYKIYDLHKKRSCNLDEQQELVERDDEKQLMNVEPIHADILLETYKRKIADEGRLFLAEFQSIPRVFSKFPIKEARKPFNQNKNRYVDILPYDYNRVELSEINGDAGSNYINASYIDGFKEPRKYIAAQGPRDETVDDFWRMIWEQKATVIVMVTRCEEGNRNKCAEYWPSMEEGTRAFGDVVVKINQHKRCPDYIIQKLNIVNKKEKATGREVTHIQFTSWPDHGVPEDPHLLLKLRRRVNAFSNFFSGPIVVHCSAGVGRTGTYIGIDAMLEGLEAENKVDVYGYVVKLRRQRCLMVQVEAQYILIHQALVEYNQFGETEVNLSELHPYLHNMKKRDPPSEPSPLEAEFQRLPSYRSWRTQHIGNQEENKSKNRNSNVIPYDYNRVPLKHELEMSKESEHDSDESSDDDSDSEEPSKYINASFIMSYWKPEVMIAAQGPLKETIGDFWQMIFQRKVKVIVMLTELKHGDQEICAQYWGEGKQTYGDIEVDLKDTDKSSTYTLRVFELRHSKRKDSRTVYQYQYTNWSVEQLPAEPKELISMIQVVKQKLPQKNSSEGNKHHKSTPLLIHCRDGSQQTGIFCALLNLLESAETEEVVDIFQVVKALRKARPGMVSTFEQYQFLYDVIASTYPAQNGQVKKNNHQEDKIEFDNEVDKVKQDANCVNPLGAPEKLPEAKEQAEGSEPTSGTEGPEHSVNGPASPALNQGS

[8] = DRUGMATRIX: Tumor Necrosis Factor (TNF), Non-Selective radioligand binding (ligand: [125I] TNF-alpha); type: cell membranes, Membrane; details: u-937; Not Active = under 50% inhibition at 10 µM
[9] = DRUGMATRIX: Phorbol Ester radioligand binding (ligand: [3H] PDBu); type: cell membranes, Mus musculus, ICR, Brain, Membrane; details: Not Active = under 50% inhibition at 10 µM

Delta-type opioid receptor, sequence (P41143 whole entry): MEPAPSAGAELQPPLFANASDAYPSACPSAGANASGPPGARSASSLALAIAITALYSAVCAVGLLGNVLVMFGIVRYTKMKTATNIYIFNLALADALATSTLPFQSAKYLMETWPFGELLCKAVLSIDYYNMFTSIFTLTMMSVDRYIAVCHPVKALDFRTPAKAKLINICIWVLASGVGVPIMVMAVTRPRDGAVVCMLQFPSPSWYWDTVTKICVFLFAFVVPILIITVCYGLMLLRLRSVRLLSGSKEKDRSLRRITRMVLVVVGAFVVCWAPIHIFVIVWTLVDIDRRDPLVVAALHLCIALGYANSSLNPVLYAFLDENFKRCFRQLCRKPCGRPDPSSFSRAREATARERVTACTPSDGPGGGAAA

COC(=O)CCc1ccc(OCC(O)CNC(C)C)cc1 (stereo not drawn) [ESMOLOL]
Not Active: IC50 [1] | IC50 [2] | Ki [2] | IC50 [3] | Ki [3] | IC50 [4] | IC50 [5] | IC50 [6] | IC50 [7] | IC50 [8] | Ki [8] | IC50 [9] | Ki [9]

CCC1(C)CC(=O)NC1=O (stereo not drawn) [ETHOSUXIMIDE]
Not Active: IC50 [1] | IC50 [2] | Ki [2] | IC50 [3] | Ki [3] | IC50 [4] | IC50 [5] | IC50 [6] | IC50 [7] | IC50 [8] | Ki [8] | IC50 [9] | Ki [9]

C#C[C@]1(OC(C)=O)CC[C@H]2[C@@H]3CCC4=C[C@@H](OC(C)=O)CC[C@@H]4[C@H]3CC[C@@]21C [ETHYNODIOL DIACETATE]
Not Active: IC50 [1] | IC50 [2] | Ki [2] | IC50 [3] | Ki [3] | IC50 [4] | IC50 [5] | IC50 [6] | IC50 [7] | IC50 [8] | Ki [8] | IC50 [9] | Ki [9]

C=CCc1ccc(O)c(OC)c1 [EUGENOL]
Not Active: IC50 [1] | IC50 [2] | Ki [2] | IC50 [3] | Ki [3] | IC50 [4] | IC50 [5] | IC50 [6] | IC50 [7] | IC50 [8] | Ki [8] | IC50 [9] | Ki [9]

CC(C(=O)O)c1cccc(Oc2ccccc2)c1 (stereo not drawn) [FENOPROFEN]
Not Active: IC50 [1] | IC50 [2] | Ki [2] | IC50 [3] | Ki [3] | IC50 [4] | IC50 [5] | IC50 [6] | IC50 [7] | IC50 [8] | Ki [8] | IC50 [9] | Ki [9]

CC(C)(C)NC(=O)[C@H]1CC[C@H]2[C@@H]3CC[C@H]4NC(=O)C=C[C@]4(C)[C@H]3CC[C@]12C [FINASTERIDE]
Not Active: IC50 [1] | IC50 [2] | Ki [2] | IC50 [3] | Ki [3] | IC50 [4] | IC50 [5] | IC50 [6] | IC50 [7] | IC50 [8] | Ki [8] | IC50 [9] | Ki [9]

Nc1ccn([C@@H]2O[C@H](CO)[C@@H](O)C2(F)F)c(=O)n1 [GEMCITABINE]
Not Active: IC50 [1] | IC50 [2] | Ki [2] | IC50 [3] | Ki [3] | IC50 [4] | IC50 [5] | IC50 [6] | IC50 [7] | IC50 [8] | Ki [8] | IC50 [9] | Ki [9]

N=C(N)NC(=O)Cc1c(Cl)cccc1Cl [GUANFACINE]
Not Active: IC50 [1] | IC50 [2] | Ki [2] | IC50 [3] | Ki [3] | IC50 [4] | IC50 [5] | IC50 [6] | IC50 [7] | IC50 [8] | Ki [8] | IC50 [9] | Ki [9]

Oc1c(Cl)cc(Cl)c(Cl)c1Cc1c(O)c(Cl)cc(Cl)c1Cl [HEXACHLOROPHENE]
Not Active: IC50 [1] | IC50 [2] | Ki [2] | IC50 [3] | Ki [3] | IC50 [4] | IC50 [5] | IC50 [6] | IC50 [7] | IC50 [8] | Ki [8] | IC50 [9] | Ki [9]

NNc1nncc2ccccc12 [HYDRALAZINE]
Not Active: IC50 [1] | IC50 [2] | Ki [2] | IC50 [3] | Ki [3] | IC50 [4] | IC50 [5] | IC50 [6] | IC50 [7] | IC50 [8] | Ki [8] | IC50 [9] | Ki [9]

COC1=C(OC)C(=O)C(CCCCCCCCCCO)=C(C)C1=O [IDEBENONE]
Not Active: IC50 [1] | IC50 [2] | Ki [2] | IC50 [3] | Ki [3] | IC50 [4] | IC50 [5] | IC50 [6] | IC50 [7] | IC50 [8] | Ki [8] | IC50 [9] | Ki [9]
